Data published in paper PMC9918186, “Interaction of Positively Charged Oligopeptides with Blood Plasma Proteins” (International Journal of Molecular Sciences, 2023).

Assays:
[1] = system: γ-globulin fraction (GGF); assay: Fluorescence quenching of GGF by peptides L1–3; type: binding; settings: for Stern–Volmer constant Ksv / binding constant Kb / logKb: GGF 1.0 µM, phosphate buffer; for Stern–Volmer constant Ksv: peptide 0.25–2.0 µM, λex 280 nm; for logKb: double log regression; for quenching rate constant kq: from Ksv with τ0 10^−8 s assumed
Protocol: (§1) Fluorescence spectroscopy was carried out to characterize the mechanism of the interaction between three plasma proteins, BSA, AAG, and GGF, with the studied peptides. The fluorescence spectra of protein were collected during titration of L1–L3. The excitation wavelength was set at λ = 280 nm (both Trp and Tyr residues were excited).
(§2) To confirm this, the fluorescence data were further analyzed by the Stern–Volmer Equation (1) after correction due to the infer filter effect (2):(1) F0/F=1+kqτ[Q]=1+KSV (2) Fcorr=Fobs10^(Aex+Aem)/2 where F0 and F are the fluorescence intensities (after correction) of the protein and protein in the presence of L1–3, respectively, kq is the quenching rate constant, τ0 the average lifetime, [Q] is the L1–3 concentration, Ksv is the Stern–Volmer constant, and Fcorr, and Fobs are the corrected and observed fluorescence intensities, respectively. Aex and Aem are the absorbance values at excitation and emission wavelengths, respectively. A linear regression fit was used to calculate the value of the Stern–Volmer constant (Ksv). Then, assuming the average lifetime of the fluorophore in the excited state for a biomolecule as 10^−8 s, the quenching rate constant (kq) was computed. For dynamic quenching, the maximum scatters collision quenching rate constant for different quenchers with the biopolymers was reported to be 2 × 10^10 dm^3mol^−1s^−1 [55, 56]. […] Collisional quenching occurs when the excited-state fluorophore is deactivated by contact with some other molecule in solution (by collisions). […] This is a dynamic mechanism of quenching. The quenching constant characterizes the quenching mechanism. The maximum value for collisional quenching is 2 × 10^10 dm^3mol^−1s^−1. […] For further confirmation, measurements were made at, in addition to 297 K, temperatures 303 and 308 K. Experimental data points were fitted and analyzed using Equation (1).
(§3) Both for the complexes with BSA and with GGF, the binding constant (Kb) and the binding stoichiometry (n) were calculated. […] The values of Kb and n were calculated from the slope and the intercept of the log [(F0 − F)/F] versus log [Q] plot (Figure 2).
(§4) The forces involved in the interaction can be identified by measurement at different temperatures and then by thermodynamic analysis. The signs of the thermodynamic parameters identify the type of interactions. The enthalpy change (ΔH°), the entropic change (ΔS°), and the free energy change (ΔG°) were calculated from Equations (4) and (5):(4) […]=−ΔH^°/RT+ΔS^°/R (5) ΔG^°=ΔH^°−TΔS^°=−RTlnKb where Kb is the binding constant and R is the universal gas constant. To determine the thermodynamic parameters, the van’t Hoff plot was first conducted, i.e., the temperature dependence of the binding constant, according to Equation (4). The Kb values at the three temperatures were fitted by the linear regression method. The values of ΔH and ΔS were calculated from the slope and intercept at the fitted line. Next, the free energy change (ΔG°) was obtained from Equation (5).

[2] = biological target: bovine serum albumin (BSA) (Bos taurus, UniProt P02769); assay: Fluorescence quenching of BSA by peptides L1–3; settings: for Stern–Volmer constant Ksv / logKb: BSA 1.0 µM, phosphate buffer; for Stern–Volmer constant Ksv: peptide 0.25–2.0 µM, λex 280 nm; for logKb: double log regression; for quenching rate constant kq: from Ksv with τ0 10^−8 s assumed
Sequence of bovine serum albumin (BSA) (P02769 25-607): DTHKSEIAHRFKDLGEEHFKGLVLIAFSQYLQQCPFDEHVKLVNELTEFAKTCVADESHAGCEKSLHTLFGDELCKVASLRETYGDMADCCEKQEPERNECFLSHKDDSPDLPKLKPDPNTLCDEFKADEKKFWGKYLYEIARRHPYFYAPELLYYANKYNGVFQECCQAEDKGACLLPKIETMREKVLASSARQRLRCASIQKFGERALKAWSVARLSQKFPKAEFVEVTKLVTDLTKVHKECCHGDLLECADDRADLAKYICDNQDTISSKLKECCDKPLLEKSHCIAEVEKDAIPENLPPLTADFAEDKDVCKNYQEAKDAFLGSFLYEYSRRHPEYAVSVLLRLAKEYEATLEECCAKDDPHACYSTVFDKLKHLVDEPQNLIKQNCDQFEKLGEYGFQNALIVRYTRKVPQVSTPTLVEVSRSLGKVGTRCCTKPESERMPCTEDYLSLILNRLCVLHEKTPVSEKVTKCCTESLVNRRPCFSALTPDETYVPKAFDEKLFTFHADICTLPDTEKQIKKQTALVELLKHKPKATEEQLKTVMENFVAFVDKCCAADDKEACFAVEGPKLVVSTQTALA
Protocol: as §1, §2, §3, §4

[3] = BSA, van't Hoff plot of Kb at 297, 303, 308 K

binding constant Kb ([1]; 297 K): 10.10 ± 0.24 × 10^4 dm^3mol^−1
binding constant Kb ([1]; 303 K): 6.17 ± 0.25 × 10^4 dm^3mol^−1
binding constant Kb ([1]; 308 K): 2.51 ± 0.12 × 10^4 dm^3mol^−1
number of binding sites n ([2]; 297 K, BSA): 0.80 ± 0.02
Stern–Volmer constant Ksv ([2]; 297 K, inner-filter corrected): 1.55 ± 0.07 × 10^5 dm^3mol^−1
logKb ([2]; 297 K): 4.07 ± 0.07
quenching rate constant kq ([2]; 297 K): 1.55 ± 0.07 × 10^13 dm^3mol^−1s^−1
number of binding sites n ([2]; 303 K, BSA): 0.80 ± 0.04
Stern–Volmer constant Ksv ([2]; 303 K): 1.21 ± 0.03 × 10^5 dm^3mol^−1
logKb ([2]; 303 K): 3.95 ± 0.09
quenching rate constant kq ([2]; 303 K): 1.21 ± 0.03 × 10^13 dm^3mol^−1s^−1
number of binding sites n ([2]; 308 K, BSA): 0.80 ± 0.02
Stern–Volmer constant Ksv ([2]; 308 K): 0.70 ± 0.06 × 10^5 dm^3mol^−1
logKb ([2]; 308 K): 3.72 ± 0.15
quenching rate constant kq ([2]; 308 K): 0.70 ± 0.06 × 10^13 dm^3mol^−1s^−1
ΔG° ([2]; BSA, from ΔH° − TΔS°): −23 ± 1 kJmol^−1
ΔH° [2, 3]: −54 ± 2 kJmol^−1
ΔS° [2, 3]: −106 ± 3 Jmol^−1K^−1
Substance: Lys-Dab-Dab-Gly-Orn-Pro-His-Lys-Arg-Lys-Dbt [L1]
Stern–Volmer constant Ksv ([1]; 297 K, inner-filter corrected): 4.24 ± 0.06 × 10^4 dm^3mol^−1
logKb ([1]; 297 K): 5.00 ± 0.12
quenching rate constant kq ([1]; 297 K): 4.24 ± 0.06 × 10^12 dm^3mol^−1s^−1
Stern–Volmer constant Ksv ([1]; 303 K): 4.03 ± 0.13 × 10^4 dm^3mol^−1
logKb ([1]; 303 K): 4.79 ± 0.20
quenching rate constant kq ([1]; 303 K): 4.03 ± 0.13 × 10^12 dm^3mol^−1s^−1
Stern–Volmer constant Ksv ([1]; 308 K): 3.60 ± 0.06 × 10^4 dm^3mol^−1
logKb ([1]; 308 K): 4.39 ± 0.21
quenching rate constant kq ([1]; 308 K): 3.60 ± 0.06 × 10^12 dm^3mol^−1s^−1
